The numbers were not newly measured in patent US7501136B2, “Deodorant composition” (Kao Corporation, priority 2003, dated 2009), which cites them from elsewhere.

For the data set, the system named is Staphylococcus aureus. As to conditions: against Staphylococcus aureus.

Turning to `Cc1cc(O)ccc1C(C)C` [isopropyl methylphenol], the “MIC (Minimum Inhibitory Concentration)” value is on record as 0.015%.
